Nine compounds from PubChem BioAssay (NCI) can be followed below.

“And” between values parts separate entries of the source, which are not always exact repeats. Identical values can stand only once.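 Grown in 96-well plates, cells were treated for 48 hours with each compound at five concentrations. Insufficient inhibition: endpoint recorded as highest concentration tested. GI50 is the concentration that inhibits growth by half. TGI: total growth inhibition.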 *1 amine or outer side, *2 acyl side, *3 side chain or, on linkers, in order; H or OH if unused. Where a SMILES comes first, the peptide text is derived from it. [ ]: non-standard residue; d: D form. X56 = CC[C@H](C)[C@H](OC(=O)[C@@H](C)[C@@H](CC)N[*:1])C(=O)[*:2]; X32 = C[C@H](N[*:1])C(=O)C(C)(C)C(=O)[*:2]; NMeY = CN[C@@H](Cc1ccc(O)cc1)C(=O)O; NMeL = CN[C@@H](CC(C)C)C(=O)O; NMeV = CN[C@H](C(=O)O)C(C)C A value given as a limit tells only on which side of the number the result lay.

Some test systems named below: UACC-62 melanoma; DU-145 prostate; BT-549 breast; HCC-2998 colon; NCI-H23 lung; IGROV1 ovarian; LOX IMVI melanoma; NCI/ADR-RES ovarian; HL-60(TB) leukemia; KM12 colon.
Common to all, as to assay: growth of human tumour cells (NCI), 48 h

For `N#Cc1c(N)nc(N2CCOCC2)c(C#N)c1-c1ccccc1Cl`, the GI50 was 18.9 µM in the assay with UACC-62 melanoma; 93.4 µM in the assay with DU-145 prostate; 30.5 µM in the assay with BT-549 breast; 49.8 µM in the assay on HCC-2998 colon; 37.7 µM in the assay with NCI-H23 lung; 14.7 µM in the assay on IGROV1 ovarian. In addition, the GI50 in the assay on LOX IMVI melanoma was 56 µM; in the assay with NCI/ADR-RES ovarian, 40.2 µM. The TGI is over 100 µM in the assay with UACC-62 melanoma; over 100 µM with DU-145 prostate; over 100 µM in the assay on BT-549 breast; over 100 µM in the assay with HCC-2998 colon; over 100 µM in the assay on NCI-H23 lung; 41.7 µM in the assay with IGROV1 ovarian. Also, the TGI with LOX IMVI melanoma and with NCI/ADR-RES ovarian was over 100 µM each time.
As for `COc1cc2c(cc1OCCCCOc1ccc(-c3nc4ccccc4s3)cc1)N=C[C@@H]1CCCN1C2=O`, the GI50 in the assay with UACC-62 melanoma was 1.14 µM; with DU-145 prostate, 0.426 µM; in the assay with HL-60(TB) leukemia, 0.384 µM; in the assay on BT-549 breast, 0.93 µM; with HCC-2998 colon, 0.82 µM; in the assay on NCI-H23 lung, 1.15 µM. Further, the GI50 in the assay on IGROV1 ovarian was 1.28 µM; with LOX IMVI melanoma, 0.73 µM; in the assay with NCI/ADR-RES ovarian, 1.49 µM. Moreover, the TGI with UACC-62 melanoma was 2.69 µM; in the assay with DU-145 prostate, 2.05 µM; in the assay with HL-60(TB) leukemia, 16.5 µM; in the assay on BT-549 breast, 2.38 µM; with HCC-2998 colon, 2.28 µM; with NCI-H23 lung it was 3.56 µM. Also, the TGI in the assay with IGROV1 ovarian turned out to be 6.08 µM; in the assay with LOX IMVI melanoma it was 1.96 µM; in the assay with NCI/ADR-RES ovarian it was 5.17 µM.
Consider `CC[C@H](C)[C@@H]1OC(=O)[C@@H](C)[C@@H](CC)NC(=O)[C@H](C)NC(=O)C(C)(C)C(=O)[C@H](C)NC(=O)[C@H](Cc2ccc(OC)cc2)N(C)C(=O)[C@H](C(C)C)N(C)C(=O)CNC(=O)[C@H](CC(C)C)N(C)C(=O)CNC1=O` (cyclo(A[X56]G[NMeL]G[NMeV][NMeY](Me)[X32])), for which the GI50 with KM12 colon is 0.679 µM; in the assay with UACC-62 melanoma, 0.111 µM; in the assay with NCI-H23 lung it was 0.367 µM; with IGROV1 ovarian, 0.0193 µM; in the assay with LOX IMVI melanoma it was 0.0392 µM. Further, the TGI in the assay on KM12 colon was 91.2 µM; in the assay on UACC-62 melanoma, 5.28 µM and 5.31 µM; with DU-145 prostate it was 7.04 µM; with BT-549 breast, 0.28 µM; in the assay with HCC-2998 colon, 3.94 µM; in the assay with NCI-H23 lung, 3.66 µM. Further, the TGI in the assay with IGROV1 ovarian was 0.306 µM and 0.102 µM; in the assay on NCI/ADR-RES ovarian it was 9.92 µM.
On to `O=C1NN(c2ccccc2)C(=O)/C1=C/c1ccc(Br)o1`, for which the GI50 in the assay with KM12 colon is 9.71 µM; with UACC-62 melanoma, 11.8 µM; with DU-145 prostate, 1.45 µM; in the assay on HL-60(TB) leukemia, 10.5 µM; with NCI-H23 lung it was 15.6 µM; in the assay on IGROV1 ovarian it was 5.19 µM. Further, the GI50 with LOX IMVI melanoma was 5.42 µM; in the assay on NCI/ADR-RES ovarian, 15.8 µM. Besides, the TGI was 24 µM in the assay with KM12 colon; 24.3 µM in the assay on UACC-62 melanoma; 11.2 µM with DU-145 prostate; over 81.1 µM with HL-60(TB) leukemia; 17.2 µM in the assay with BT-549 breast; 36.1 µM in the assay with NCI-H23 lung. The TGI was determined as 35 µM with IGROV1 ovarian, 22.4 µM with LOX IMVI melanoma and 54.8 µM with NCI/ADR-RES ovarian.
Take `Cc1cc2cn3c4cccnc4[nH]c(=O)c3c2cc1C`: the GI50 in the assay with KM12 colon was 1.15 µM; in the assay with UACC-62 melanoma it was 1.38 µM; with DU-145 prostate it was 1.83 µM; in the assay on HL-60(TB) leukemia, 2.08 µM; in the assay on BT-549 breast, 12.2 µM; in the assay on HCC-2998 colon, 1.5 µM. Moreover, the results for the GI50 in the assay with NCI-H23 lung, in the assay with LOX IMVI melanoma and in the assay with NCI/ADR-RES ovarian were 1.37 µM, 1.47 µM and 1.39 µM, respectively. In addition, the TGI with KM12 colon turned out to be 2.56 µM; in the assay on UACC-62 melanoma, 2.78 µM; with DU-145 prostate, 3.28 µM; in the assay on HL-60(TB) leukemia, 4.16 µM; with BT-549 breast, 29.4 µM; in the assay with HCC-2998 colon, 2.92 µM. Besides, the figures for the TGI with NCI-H23 lung, in the assay with LOX IMVI melanoma and in the assay with NCI/ADR-RES ovarian were 2.74 µM, 2.99 µM and 2.96 µM, respectively.
In the case of `COc1ccc2c(c1)/C(=C/c1cc(OC)c(OC)c(OC)c1)C(=O)N2C`, the GI50 in the assay on KM12 colon was 1.76 µM; with UACC-62 melanoma, 2.37 µM; in the assay with HL-60(TB) leukemia, 1.46 µM; in the assay with BT-549 breast it was 2.84 µM; in the assay with HCC-2998 colon, 9.39 µM; in the assay with NCI-H23 lung, 4.42 µM. Also, the GI50 in the assay with IGROV1 ovarian is 1.9 µM; with LOX IMVI melanoma, 2.32 µM; with NCI/ADR-RES ovarian, 3.37 µM. For the same compound, the TGI in the assay with KM12 colon is 4.95 µM; with UACC-62 melanoma, over 24 µM; with HL-60(TB) leukemia, 5.28 µM; in the assay with BT-549 breast, over 30.4 µM; in the assay with HCC-2998 colon, over 56.1 µM; in the assay with NCI-H23 lung, over 100 µM. Also, the values for the TGI in the assay on IGROV1 ovarian, in the assay on LOX IMVI melanoma and in the assay with NCI/ADR-RES ovarian were 5.31 µM, 11.8 µM and over 39.7 µM, respectively.
For the compound `O=C1CS/C(=N\S(=O)(=O)c2ccc(N3N=C4c5ccccc5CC4C3c3ccc(Cl)cc3)cc2)N1c1ccccc1` (stereo unspecified), the GI50 was 22 µM in the assay on KM12 colon; 30.1 µM with UACC-62 melanoma; 33.9 µM with DU-145 prostate; 23.1 µM with HL-60(TB) leukemia; 35.6 µM in the assay with BT-549 breast; 37.8 µM in the assay on IGROV1 ovarian. In addition, the GI50 with LOX IMVI melanoma was 23.4 µM. In addition, the TGI in the assay with KM12 colon is 58.6 µM; in the assay with UACC-62 melanoma it was 77.3 µM; in the assay with DU-145 prostate, over 100 µM; with HL-60(TB) leukemia, 48.7 µM; with BT-549 breast it was over 100 µM; with IGROV1 ovarian, over 100 µM. This compound registered a TGI in the assay on LOX IMVI melanoma of 49.1 µM.
With `COc1cc(OC)c(C(=O)/C=C/c2cccc(OC(C)=O)c2)cc1CC=C(C)C`, the GI50 in the assay on KM12 colon is 7.16 µM; in the assay with DU-145 prostate, 6.18 µM; with HL-60(TB) leukemia, 13.3 µM; in the assay with BT-549 breast, 6.28 µM; in the assay on HCC-2998 colon it was 8.87 µM; in the assay with NCI-H23 lung it was 8.05 µM. Further, the GI50 with IGROV1 ovarian is 15.9 µM; in the assay on LOX IMVI melanoma it was 6.29 µM; in the assay with NCI/ADR-RES ovarian, 7.62 µM. The TGI in the assay with KM12 colon was 14.8 µM; with DU-145 prostate it was 14.6 µM; in the assay on HL-60(TB) leukemia, over 50 µM; in the assay on BT-549 breast, 36.6 µM; in the assay with HCC-2998 colon, 16.2 µM; in the assay on NCI-H23 lung it was 18.5 µM. Also, the TGI with IGROV1 ovarian was over 50 µM; in the assay with LOX IMVI melanoma it was 13.1 µM; with NCI/ADR-RES ovarian, 31.3 µM.
With `Cc1cc(=O)oc2cc(OS(C)(=O)=O)ccc12`, the TGI in the assay with UACC-62 melanoma, with DU-145 prostate, in the assay with HL-60(TB) leukemia, in the assay with BT-549 breast, in the assay with HCC-2998 colon and in the assay with NCI-H23 lung was over 100 µM throughout. In addition, the TGI in the assay with IGROV1 ovarian, with LOX IMVI melanoma and in the assay with NCI/ADR-RES ovarian was over 100 µM throughout.
